{"source": "patent US20260306476A1", "about": "“ANTIBACTERIAL COMPOUND PBT2” (priority 2022, published 2026)", "key": {"[1]": {"system": "gram-positive and gram-negative bacteria", "conditions": "PBT2 in the presence of zinc; cited from earlier work"}, "[2]": {"system": "non-typeable Haemophilus influenzae (NTHi) 2019", "assay": "MIC of PBT2 alone (broth)", "assay_type": "cell-based", "method": "(§1) The MIC of PBT2 against five non-typeable Haemophilus influenzae (NTHi) strains was determined (CLSI. 2022. Performance Standards for Antimicrobial Susceptibility Testing, 32nd Edition. Clinical and Laboratory Standards Institute)."}, "[3]": {"system": "non-typeable Haemophilus influenzae (NTHi) R2866", "assay": "MIC of PBT2 alone (broth)", "assay_type": "cell-based", "method": "as §1"}, "[4]": {"system": "non-typeable Haemophilus influenzae (NTHi) 86-028NP", "assay": "MIC of PBT2 alone (broth)", "assay_type": "cell-based", "method": "as §1"}, "[5]": {"system": "non-typeable Haemophilus influenzae (NTHi) 723", "assay": "MIC of PBT2 alone (broth)", "assay_type": "cell-based", "method": "as §1"}, "[6]": {"system": "non-typeable Haemophilus influenzae (NTHi) ATCC49766", "assay": "MIC of PBT2 alone (broth)", "assay_type": "cell-based", "method": "as §1"}, "Campylobacter jejuni": {"system": "Campylobacter jejuni", "assay": "Sensitivity across Campylobacter jejuni strains", "assay_type": "cell-based", "conditions": "all strains tested", "method": "The MIC of PBT2 against three Campylobacter jejuni strains was determined. All strains tested were sensitive to PBT2."}, "[7]": {"system": "erythromycin-resistant group A Streptococcus (GAS)", "conditions": "in the absence of an antibiotic; cited from earlier work"}, "[8]": {"system": "primary human cervical epithelial (Pex) cells", "assay": "PBT2-induced Pex cell cytotoxicity", "assay_type": "cell-based", "conditions": "PBT2 0.016 to 4.695 mg/L; 24 h", "method": "To assess the ability of PBT2 to cure an established gonococcal infection in a human ex vivo system, primary human cervical epithelial (Pex) cells were challenged with Neisseria gonorrhoeae strain WHO Z for 90 min and then treated with 0.1% DMSO (vehicle control), PBT2 (0.016 mg/L to 4.695 mg/L), or ceftriaxone (0.5 mg/L, positive control) for 24 h. Viable gonococci were then enumerated. […] PBT2-induced Pex cell cytotoxicity was not observed during the assay."}, "[9]": {"system": "Neisseria gonorrhoeae strain WHO Z", "assay": "MIC of Triton X-100 with/without PBT2", "assay_type": "cell-based", "conditions": "0.156 mg/L (sub-MIC) PBT2", "excerpt": "Without wishing to be bound by theory, the inventors hypothesise that this may due to the fact PBT2 is a derivative of the iron chelator clioquinol and PBT2 has the capacity to chelate a range of heavy metals including iron. Genes encoding metal homeostasis proteins (blue dots) are presented in the volcano plot (FIG. 3). Metal homeostasis was previously identified as a crucial feature of gonococcal biology, and therefore it is postulated this may be an “Achilles' heel” with respect to Neisseria gonorrhoeae ionophore sensitivity. […] MpeR is an iron-repressed, AraC-like protein that regulates the mtr efflux locus (involved in antimicrobial susceptibility) in Neisseria gonorrhoeae. Up-regulation of mpeR (e. g. by PBT2) down-regulates MtrF and, in turn, would increase Neisseria gonorrhoeae sensitivity to the antimicrobial detergent, Triton X-100 (22). […] Thus, without wishing to be bound to theory, the inventors hypothesise that PBT2 may influence bacterial iron homeostasis and trigger general defence mechanisms, such as Mtr-mediated antimicrobial efflux, but the Mtr-system may be unable to protect against PBT2."}, "[10]": {"system": "Helicobacter pylori ATCC 43504", "assay": "MIC of PBT2 alone (agar)", "assay_type": "cell-based", "conditions": "ATCC43504"}, "[11]": {"system": "Helicobacter pylori CH428", "assay": "MIC of PBT2 alone (agar)", "assay_type": "cell-based"}, "[12]": {"system": "vancomycin-resistant Enterococcus (VRE)", "conditions": "in the absence of an antibiotic; cited from earlier work"}, "[13]": {"system": "Helicobacter pylori CH426", "assay": "MIC of PBT2 alone (agar)", "assay_type": "cell-based"}, "[14]": {"system": "Helicobacter pylori 26695", "assay": "MIC of PBT2 alone (agar)", "assay_type": "cell-based", "method": "The MIC of PBT2 against four Helicobacter pylori 26695 strains was determined. The strains tested were sensitive to PBT2."}, "[15]": {"assay": "Plasma drug level of PBT2 in clinical trial (NCT02249728)", "assay_type": "in vivo, human", "conditions": "250 mg/day; MDR Neisseria gonorrhoeae"}, "[16]": {"system": "methicillin-resistant Staphylococcus aureus (MRSA)", "conditions": "in the absence of an antibiotic; cited from earlier work"}, "[17]": {"system": "Neisseria meningitidis PMC19 (W)", "assay": "MIC of PBT2 (broth and agar)"}, "[18]": {"system": "non-typeable Haemophilus influenzae (NTHi)", "assay": "Sensitivity across NTHi strains", "assay_type": "cell-based", "conditions": "all strains tested", "method": "as §1"}, "Neisseria gonorrhoeae": {"system": "Neisseria gonorrhoeae", "assay": "Antibiotic resistance development test over 30 days", "assay_type": "cell-based", "conditions": "30 days of daily subculture; sub-MIC PBT2 (0.156 mg/L)", "method": "FIG. 2: Antibiotic resistance development assay of PBT2.\nResistance development was tested over a 30 day period with PBT2 and using Kanamycin as a control."}, "[19]": {"system": "Neisseria meningitidis PMC2 (Z/29E)", "assay": "MIC of PBT2 (broth and agar)"}}, "note": "“Also recorded” adds a separate entry of the source.", "data": [{"smiles": "CN(C)Cc1ccc2c(Cl)cc(Cl)c(O)c2n1", "note": "[PBT2, 5,7-dichloro-2-[(dimethylamino)methyl]quinolin-8-ol]", "values": [{"measurement": "susceptibility of bacteria to antibiotics", "setting": "[1]", "result": "more susceptible to antibiotics"}, {"measurement": "MIC", "setting": "[2]", "result": 2.5, "unit": "µg/mL"}, {"measurement": "MIC", "setting": "[3]", "result": 2.5, "unit": "µg/mL"}, {"measurement": "MIC", "setting": "[4]", "result": 2.5, "unit": "µg/mL"}, {"measurement": "MIC", "setting": "[5]", "result": 1.25, "unit": "µg/mL"}, {"measurement": "MIC", "setting": "[6]", "result": 0.312, "unit": "µg/mL"}, {"measurement": "sensitivity", "setting": "Campylobacter jejuni", "result": "sensitive"}, {"measurement": "antibacterial activity", "setting": "[7]", "result": "neither PBT2 nor zinc alone displayed antibacterial activity which would be suitable to treat an infection"}, {"measurement": "PBT2-induced Pex cell cytotoxicity", "setting": "[8]", "result": "not observed"}, {"measurement": "effect on sensitivity to Triton X-100", "setting": "[9]", "result": "increased the sensitivity"}, {"measurement": "MIC", "setting": "[10]", "result": 2.5, "unit": "µg/mL"}, {"measurement": "MIC", "setting": "[11]", "result": 2.5, "unit": "µg/mL"}, {"measurement": "antibacterial activity", "setting": "[12]", "result": "neither PBT2 nor zinc alone displayed antibacterial activity which would be suitable to treat an infection"}, {"measurement": "MIC", "setting": "[13]", "result": 1.25, "unit": "µg/mL"}, {"measurement": "MIC", "setting": "[14]", "result": 1.25, "unit": "µg/mL"}, {"measurement": "plasma AUC relative to PBT2 MIC (313 ng/ml)", "setting": "[15]", "result": 5, "unit": "fold"}, {"measurement": "antibacterial activity", "setting": "[16]", "result": "neither PBT2 nor zinc alone displayed antibacterial activity which would be suitable to treat an infection"}, {"measurement": "MIC", "setting": "[17]; agar", "result": 0.078, "unit": "µg/mL"}, {"measurement": "MIC", "setting": "[17]; broth", "result": 0.156, "unit": "µg/mL"}, {"measurement": "sensitivity", "setting": "[18]", "result": "sensitive"}, {"measurement": "antibiotic resistance development", "setting": "Neisseria gonorrhoeae", "result": "No antibiotic resistance was observed; also recorded: no visible development of resistance"}, {"measurement": "MIC", "setting": "[19]; agar", "result": 0.039, "unit": "µg/mL"}, {"measurement": "MIC", "setting": "[19]; broth", "result": 0.156, "unit": "µg/mL"}]}]}
